Source: patent publication US20190276793A1, “Methods and Apparatus for Regulation of Gene Expression Across a Large-Scale Solid Structure” (Massachusetts Institute of Technology, priority 2018, published 2019)

System: E. coli strain IPTG/GFP
Experiment: GFP induction by cured chemical signaling resin in the IPTG/GFP reporter strain
Assay type: cell-based
Details: IPTG 2.0 M, after UV-curing
Source text: In some use cases, this prototype facilitates fluorometric assays of gene expression as follows: Strains with fluorescent protein outputs are constructed. The strains IPTG/GFP, AHL/GFP, and RHA/GFP each express a green fluorescent protein (GFP) under the control of promoters LacI, LuxR, and RhaBAD when induced by the chemicals IPTG, N-acyl homoserine lactone (AHL), Rhamnose (RHA), respectively. For orthogonal AHL and IPTG patterning, the strain AHL/RFP is also cloned to produce a differentiable red fluorescent protein (RFP) under AHL-inducible control. Also, gene constructs using combinatorial promoters (where IPTG.AHL/GFP equated to NAND logic function and IPTG.AHL/GFP equated to AND logic function) were cloned for HLM objects performing spatial patterning from two-input cell logic. These transcriptional regulators may be utilized for multi-signal pattern generation.
In a test of this prototype, different photopolymer resins (with embedded chemical signaling molecules) were created by mixing incremental concentrations and ratios of DMSO-solubilized inducer, IPTG, and uncured resin in low light. To rapidly manufacture test pieces, a VeroClear™ RGD810 tray was printed with 3×3 circular wells (10 mm diameter, 3 mm depth). […]

## CC(C)S[C@@H]1O[C@H](CO)[C@H](O)[C@H](O)[C@H]1O [IPTG, Isopropyl β-D-1-thiogalactopyranoside]
  induction in E. coli strain IPTG/GFP: robust induction
